Source: US6992218B2, “Method for obtaining aqueous formulations of oxidation-sensitive active principles” (Pharmatop SCR, priority 2000, dated 2006)
Read-outs that look alike come from different tables or passages of the source. Each block holds one compound with its values, some of them ahead of it.

Experiments:
[1] = Example IX: stability of 1% Dobutamine sulphate solution at 50° C.; type: physicochemical
Experimental: A Dobutamine sulphate solution is prepared by dissolving 1 g Dobutamine in 50 ml of water and 19 ml of a 0.10% sodium ascorbate solution is added, with continuous bubbling of nitrogen. Then 25 mg hydrated cysteine chlorhydrate and 70 mg hydrated sodium citrate are added, then 700 mg sodium chloride to ensure isotonicity. The solution is made up to 100 ml by the addition of distilled water for injectable preparations.
It is filled into 100 ml bottles under nitrogen until the residual oxygen content is below 0.8 ppm. The bottles are then stoppered under vacuum (approx. 10,000 Pa) and sterilized at 121° C. for 20 minutes.
After removal from the autoclave, the bottles are kept in darkness in a thermostatic cupboard at 50° C.
An evaluation is made of absorption at 308 nm as an indication of oxidation into secondary products, the residual oxygen content and the residual cysteine content immediately after sterilization, then after being kept for 14 days at 50° C.
Coloration remains slight and reduces as the pH increases.

[2] = Example V: residual cysteine in buffered aqueous cysteine solutions; type: physicochemical; details: 0.25 mg/ml cysteine, approx. 7 ppm O2, darkness 25° C. 3 days
Experimental: A 0.25 mg/ml aqueous cysteine solution was adjusted to pH 5.5, made isotonic by sodium chloride and buffered using as a buffering agent: dehydrated sodium citrate (0.70 mg/ml), sodium acetate, sodium hydrogenophosphate, in quantities equimolar to that of the citrate. […] They were kept in darkness at 25° C. for 3 days.

[3] = Example VI: buffered paracetamol + cysteine solutions without deoxygenation; type: physicochemical; details: 10 mg/ml paracetamol + 0.25 mg/ml cysteine, no inert gas, darkness 25° C. 3 days
Experimental: A quantity of sodium citrate (in the form of dihydrated disodic citrate) was added to 10 mg/ml aqueous paracetamol solutions, made isotonic by NaCl and stabilized by the addition of cysteine hydrochlorhide (0.25 mg/ml) suitable for adjusting the pH to 5.5. […] Comparative solutions were prepared without sodium citrate or replacing the citrate ions by equimolar quantities to those of the citrate, of either sodium acetate, or sodium hydrogenophosphate; in all cases adjusting the pH to a value of 5.5 by the addition of sodium hydroxide or hydrochloric acid.
The solutions were not subjected to bubbling with inert gas (nitrogen) and were kept in darkness at 25° C. for 3 days.

[4] = Paracetamol solution with trisodic citrate kept at 40° C. (general statement); type: physicochemical
Experimental: In particular, in the case of paracetamol, after the addition of trisodic citrate at a concentration of 70 mg/100 ml of solution, the residual cysteine concentration is approximately double than that of preparations without citrate, no coloration appeared, even after 7 weeks at 40° C., and there was no variation in the concentration of paracetamol.

[5] = for coloration: sterilized 121° C. 15 min
Experimental: A 10 mg/ml aqueous paracetamol solution is prepared. Adjustment to pH 5.5 is carried out by the addition of HCl, and buffering by the addition of sodium hydrogenophosphate.
Deoxygenation is then carried out by bubbling with nitrogen, until a residual oxygen content of approximately 0.2 ppm is obtained. After the bottles are filled with the solution during prolonged bubbling with nitrogen, they are sterilized at 121° C. for 15 minutes.
In another test, the paracetamol solution, after being subjected to bubbling with nitrogen, has been packaged under nitrogen.

[6] = Example III: stability of paracetamol solution with or without citrate ions; type: physicochemical; details: O2 approx. 0.4 ppm, sterilized
Experimental: Thus a 10 mg/ml paracetamol solution adjusted to pH 5.5 by hydrochloric acid was subjected to bubbling with nitrogen until an oxygen content of approximately 0.4 ppm was obtained. The bottles were sterilized at 121° C. for 15 minutes and kept at ambient temperature. […] After bubbling with nitrogen, the residual oxygen content is of the order of 0.4 ppm. Afterwards the solution is packaged into bottles under vacuum and sterilized at 121° C. for 15 minutes. The bottles are kept for 67 days at ambient temperature.

[7] = Experimental: A 10 mg/ml aqueous paracetamol solution adjusted to pH 5.5 by sodium hydroxide and buffered at this value by sodium acetate was made isotonic by a sufficient quantity of sodium chloride, then an antioxidant is added to it, in this case 0.20 mg/ml cysteine chlorhydrate. This solution was subjected to bubbling with nitrogen then placed under vacuum (low pressure approx. 550 mm of Hg) before stoppering the bottles. […] After sterilization, the bottles containing this solution were kept for 24 months at 25° C.
[8] = ambient temperature under light, and 70° C. in darkness; nitrogen bubbling, filling under nitrogen, antioxidant added; cited from earlier work
[9] = pH 5.5, sodium hydrogenophosphate
[10] = trisodic citrate 70 mg/100 ml, after 7 weeks at 40° C.

degradation of the Dobutamine in heat ([1]; 1% solution with ascorbate, cysteine, citrate, vacuum, sterilized 121° C. 20 min, kept at 50° C.): no degradation
secondary peaks by liquid chromatography, absorption at 308 nm ([1]; degree decreases as the pH increases): appearance of secondary peaks
coloration ([1]; reduces as the pH increases): slight
SMILES: CC(CCc1ccc(O)cc1)NCCc1ccc(O)c(O)c1 (stereo not drawn) [Dobutamine]

residual cysteine content ([2]; pH 5.5, citrate 0.70 mg/ml): lowest
residual cysteine content ([2]; pH 5.5, non-buffered): 15%
residual cysteine content ([2]; pH 5.5, sodium acetate): 18%
residual cysteine content [2, 9]: 21%
residual cysteine ([3]; pH 5.5, citrate approx. 0.7 mg/ml): 22%
residual cysteine ([3]; pH 5.5, non-buffered): 42%
residual cysteine ([3]; pH 5.5, sodium acetate): 17%
residual cysteine [3, 9]: 21%
SMILES: N[C@@H](CS)C(=O)O [cysteine]

residual cysteine concentration versus preparations without citrate ([4]; trisodic citrate 70 mg/100 ml of solution): approximately double
coloration [4, 10]: no coloration
variation in the concentration of paracetamol [4, 10]: no variation
coloration ([5]; 10 mg/ml, pH 5.5, no antioxidant, O2 approx. 0.2 ppm, 6 months at 25° C.): colourless
paracetamol content ([5]; 10 mg/ml, pH 5.5, no antioxidant, O2 approx. 0.2 ppm, sterilized, 6 months at 25° C.): no change
content of degradation products of paracetamol determined by HPLC ([5]; 6 months, 10 mg/ml, pH 5.5): lower than 0.015 % of the paracetamol
coloration ([5]; packaged under nitrogen, vacuum < 10,000 Pa, O2 0.16 ppm, 8 days at 30° C.): colourless
coloration ([6]; 10 mg/ml with citric acid/sodium citrate, under vacuum, 67 days at ambient temperature): perfectly colourless
coloration ([6]; 10 mg/ml, pH 5.5 by HCl, no citrate, 9 days at ambient temperature): yellow-pink
paracetamol content ([7]; 0.20 mg/ml cysteine chlorhydrate, O2 approx. 1.5 ppm, sterilized, 24 months at 25° C.): 100 % of the original value
coloration ([7]; 10 mg/ml, pH 5.5, acetate buffer, 0.20 mg/ml cysteine chlorhydrate, vacuum, O2 approx. 1.5 ppm, sterilized, 24 months at 25° C.): colourless
SMILES: CC(=O)Nc1ccc(O)cc1 [paracetamol]
degradation products of the paracetamol measured by HPLC ([7]; 24 months, 10 mg/ml, pH 5.5): less than 0.02 % of the paracetamol content
time for which aqueous solutions are stable [8]: 48 h
